In ChEMBL document CHEMBL5108050, “Discovery of a New Class of Uracil Derivatives as Potential Mixed Lineage Kinase Domain-like Protein (MLKL) Inhibitors” (J Med Chem, 2022):
Calls of active or inactive are those of the source. The calls are words filed in the database; no cut-off is given here.

Key:
[1] = target: T1, Mixed lineage kinase domain-like protein (Homo sapiens) (UniProt Q8NB16); experiment: Displacement of biotin-tagged TCI3136 binding from human recombinant MLKL at Cys86 residues in human HT-29 cell lysate assessed as biotin labeled ligand-protein complex pull down at 5 uM preincubated with compound for 1 hr followed by probe addition for 1 hrs and further incubated with biotinylation of probe by click chemistry reaction for 2 hrs by pull-down assay; assay type: subcellular; details: time 4.0 hrs
T1 sequence (whole entry): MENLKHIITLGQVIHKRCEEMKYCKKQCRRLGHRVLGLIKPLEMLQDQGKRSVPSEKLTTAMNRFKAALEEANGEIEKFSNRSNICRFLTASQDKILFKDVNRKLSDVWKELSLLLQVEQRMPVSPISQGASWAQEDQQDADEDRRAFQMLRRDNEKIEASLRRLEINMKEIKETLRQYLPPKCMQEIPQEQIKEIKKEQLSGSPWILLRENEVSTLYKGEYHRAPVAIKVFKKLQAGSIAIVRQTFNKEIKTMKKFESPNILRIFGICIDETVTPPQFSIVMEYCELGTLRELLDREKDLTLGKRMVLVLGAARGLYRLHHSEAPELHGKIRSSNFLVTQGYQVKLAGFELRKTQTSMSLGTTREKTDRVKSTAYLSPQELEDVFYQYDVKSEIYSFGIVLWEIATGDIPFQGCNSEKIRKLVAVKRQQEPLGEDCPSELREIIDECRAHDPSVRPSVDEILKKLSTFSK

[2] = target: T2, Receptor-interacting serine/threonine-protein kinase 1 (Homo sapiens) (UniProt Q13546); experiment: Inhibition of RIP1 (1 to 375 residues) (unknown origin) assessed as substrate phosphorylation using MBP and ATP as substrate at 1 uM preincubated for 15 mins followed by substrate addition and measured after 90 mins by ADP-Glo luminescence assay; values are per cent of control; details: time 105.0 min
T2 sequence (whole entry): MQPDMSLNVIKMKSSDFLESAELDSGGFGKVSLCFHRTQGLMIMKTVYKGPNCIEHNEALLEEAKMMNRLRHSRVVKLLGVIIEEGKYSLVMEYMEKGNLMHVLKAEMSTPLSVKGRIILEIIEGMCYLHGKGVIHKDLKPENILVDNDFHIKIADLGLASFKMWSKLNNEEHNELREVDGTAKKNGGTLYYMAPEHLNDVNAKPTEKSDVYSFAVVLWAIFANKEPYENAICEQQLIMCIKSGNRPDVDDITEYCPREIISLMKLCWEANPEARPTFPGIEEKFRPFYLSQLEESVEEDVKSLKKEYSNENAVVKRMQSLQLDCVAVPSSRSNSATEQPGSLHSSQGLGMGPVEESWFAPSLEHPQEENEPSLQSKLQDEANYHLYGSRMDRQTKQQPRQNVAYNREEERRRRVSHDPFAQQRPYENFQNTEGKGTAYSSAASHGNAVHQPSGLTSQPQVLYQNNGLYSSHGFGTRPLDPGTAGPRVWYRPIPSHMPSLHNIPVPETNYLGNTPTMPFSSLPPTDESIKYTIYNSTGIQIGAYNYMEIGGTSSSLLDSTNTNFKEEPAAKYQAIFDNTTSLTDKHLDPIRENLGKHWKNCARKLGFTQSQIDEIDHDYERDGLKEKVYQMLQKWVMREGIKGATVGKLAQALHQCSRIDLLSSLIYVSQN

[3] = target: Receptor-interacting serine/threonine-protein kinase 3 (Homo sapiens) (UniProt Q9Y572); experiment: Inhibition of full length RIP3 (unknown origin) assessed as substrate phosphorylation using MBP and ATP as substrate at 10 uM preincubated for 15 mins followed by substrate addition and measured after 90 mins by ADP-Glo luminescence assay; values are per cent of control; details: time 105.0 min
[4] = target: T1, Mixed lineage kinase domain-like protein (Homo sapiens); experiment: Inhibition of human MLKL in human HT-29 cells assessed as inhibition of TSZ (TNFalpha, Smac mimetic and z-VAD-FMK) induced MLKL translocation to cell membrane at 1 uM and measured after 8 hrs by western blot analysis; assay type: cell-based
[5] = target: Receptor-interacting serine/threonine-protein kinase 3 (Homo sapiens) (UniProt Q9Y572); experiment: Inhibition of full length RIP3 (unknown origin) assessed as substrate phosphorylation using MBP and ATP as substrate at 1 uM preincubated for 15 mins followed by substrate addition and measured after 90 mins by ADP-Glo luminescence assay; values are per cent of control; details: time 105.0 min
HT-29 [6] = experiment: Anti-necroptic activity in human HT-29 cells assessed as inhibition of TSZ (TNFalpha, Smac mimetic and z-VAD-FMK) induced necroptosis incubated for 24 hrs by celltiter-glo luminescent cell viability assay; assay type: functional, cell-based; details: HT-29, 24 h
[7] = target: T1, Mixed lineage kinase domain-like protein (Homo sapiens); experiment: Inhibition of human MLKL in human HT-29 cells assessed as inhibition of TSZ (TNFalpha, Smac mimetic and z-VAD-FMK) induced MLKL oligomerization at 1 uM and measured after 6 hrs by immunoblot assay; assay type: cell-based
[8] = target: T2, Receptor-interacting serine/threonine-protein kinase 1 (Homo sapiens); experiment: Inhibition of RIP1 (1 to 375 residues) (unknown origin) assessed as substrate phosphorylation using MBP and ATP as substrate at 10 uM preincubated for 15 mins followed by substrate addition and measured after 90 mins by ADP-Glo luminescence assay; values are per cent of control; details: time 105.0 min
[9] = target: T1, Mixed lineage kinase domain-like protein (Homo sapiens); experiment: Inhibition of FLAG-tagged human MLKL in human HT-29 cells assessed as inhibition of TSZ (TNFalpha, Smac mimetic and z-VAD-FMK) induced MLKL phosphorylation by measuring dispersed phosphorylated MLKL in cytoplasm at 1 uM and measured after 8 hrs by Hoechst 33342 staining based immunofluorescence analysis; assay type: cell-based
HT-29 [10] = experiment: Anti-necroptic activity in human HT-29 KO cells expressing MLKL K157A mutant assessed as inhibition of TSZ (TNFalpha, Smac mimetic and z-VAD-FMK) induced MLKL K157A mutant mediated necroptosis incubated for 24 hrs by celltiter-glo luminescent cell viability assay; assay type: functional, cell-based
[11] = GSH reactivity in DPBS buffer assessed as fold decrease in reaction rate by UPLC-MS analysis relative to control; assay type: ADME
[12] = target: T1, Mixed lineage kinase domain-like protein (Homo sapiens); experiment: Covalent binding affinity to human recombinant MLKL at Cys86 residue assessed as covalent additive product formation by LC-MS/MS analysis
HT-29 [13] = experiment: Anti-necroptic activity in human HT-29 cells assessed as inhibition of TSZ induced necroptosis incubated for 5 min followed by compound washout and further induced with TSZ by celltiter-glo luminescent cell viability assay; assay type: functional, cell-based; details: HT-29, 5 min
HT-29 [14] = experiment: Anti-necroptic activity in human HT-29 cells assessed as inhibition of TSZ induced necroptosis incubated for 3 hr followed by compound washout and further induced with TSZ by celltiter-glo luminescent cell viability assay; assay type: functional, cell-based; details: HT-29, 3 h
HT-29 [15] = experiment: Anti-necroptic activity in human HT-29 cells assessed as inhibition of TSZ induced necroptosis incubated for 1 hr followed by compound washout and further induced with TSZ by celltiter-glo luminescent cell viability assay; assay type: functional, cell-based; details: HT-29, 1 h
HT-29 [16] = experiment: Anti-necroptic activity in human HT-29 cells assessed as inhibition of TSZ induced necroptosis incubated for 3 hrs followed by TSZ stimulation by celltiter-glo luminescent cell viability assay; assay type: functional, cell-based; details: HT-29, 3 h
[17] = target: T1, Mixed lineage kinase domain-like protein (Homo sapiens); experiment: Inhibition of FLAG-tagged human MLKL in human HT-29 cells assessed as inhibition of TSZ (TNFalpha, Smac mimetic and z-VAD-FMK) induced MLKL phosphorylation at 1 uM and measured after 8 hrs by Hoechst 33342 staining based immunofluorescence analysis; assay type: cell-based
MEF = experiment: Anti-necroptic activity in mouse MEF cells assessed as inhibition of TSZ (TNFalpha, Smac mimetic and z-VAD-FMK) induced necroptosis incubated for 24 hrs by celltiter-glo luminescent cell viability assay; assay type: functional, cell-based
[18] = target: T2, Receptor-interacting serine/threonine-protein kinase 1 (Homo sapiens); experiment: Inhibition of TSZ (TNFalpha, Smac mimetic and z-VAD-FMK) induced RIPK1 phosphorylation in human HT-29 cells assessed as decrease in phosphorylated RIPK1 level incubated for 8 hrs by western blot analysis; assay type: cell-based
[19] = target: T1, Mixed lineage kinase domain-like protein (Homo sapiens); experiment: Inhibition of human MLKL in human HT-29 cells assessed as inhibition of TSZ (TNFalpha, Smac mimetic and z-VAD-FMK) induced MLKL oligomerization at 5 uM and measured after 6 hrs by immunoblot assay; assay type: cell-based
[20] = target: T1, Mixed lineage kinase domain-like protein (Homo sapiens); experiment: Inhibition of human MLKL in human HT-29 cells assessed as inhibition of TSZ (TNFalpha, Smac mimetic and z-VAD-FMK) induced MLKL oligomerization at 200 nM and measured after 6 hrs by immunoblot assay; assay type: cell-based
[21] = GSH reactivity in DPBS buffer assessed as conjugation half life by UPLC-MS analysis; assay type: ADME; details: glutathione (GSH) in DPBS buffer
HT-29 [22] = experiment: Anti-necroptic activity in human HT-29 KO cells expressing MLKL F148A mutant assessed as inhibition of TSZ (TNFalpha, Smac mimetic and z-VAD-FMK) induced MLKL F148A mutant mediated necroptosis incubated for 24 hrs by celltiter-glo luminescent cell viability assay; assay type: functional, cell-based

Sequence of Receptor-interacting serine/threonine-protein kinase 3 (Homo sapiens) (Q9Y572 whole entry, looked up, the tested form may be a part): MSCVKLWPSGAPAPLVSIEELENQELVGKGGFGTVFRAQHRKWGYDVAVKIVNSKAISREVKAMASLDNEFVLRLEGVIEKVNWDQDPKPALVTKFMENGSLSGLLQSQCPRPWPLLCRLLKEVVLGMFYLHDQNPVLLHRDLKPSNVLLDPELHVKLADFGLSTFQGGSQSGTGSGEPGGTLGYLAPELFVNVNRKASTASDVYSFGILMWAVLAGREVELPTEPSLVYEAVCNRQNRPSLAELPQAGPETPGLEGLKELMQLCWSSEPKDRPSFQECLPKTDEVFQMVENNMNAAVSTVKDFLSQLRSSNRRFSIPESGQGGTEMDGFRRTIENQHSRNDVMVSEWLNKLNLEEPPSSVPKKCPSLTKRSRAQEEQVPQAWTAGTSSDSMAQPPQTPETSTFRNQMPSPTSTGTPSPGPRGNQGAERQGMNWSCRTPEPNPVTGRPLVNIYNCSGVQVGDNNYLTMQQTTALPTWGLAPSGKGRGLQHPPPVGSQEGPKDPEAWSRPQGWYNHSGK

Row | SMILES | Activity [1] | residual activity [3] [%] | inhibition [4] | residual activity [5] [%] | inhibition [7] | residual activity [8] [%] | fold change (FC) [11] | EC50 (HT-29 [6]) [nM] | inhibition (HT-29 [10]) | also measured
1 | CCC(C)(C)C(=O)N(O)Cc1ccccc1 |  |  |  |  |  |  |  |  |  | inhibition [17]: Active; inhibition (MEF): Active; inhibition [18]: Active
2 | COc1nccnc1NSc1ccc(NC(=O)/C=C/c2ccc([N+](=O)[O-])s2)cc1 |  |  |  |  |  |  |  |  | Active | inhibition [19]: Active
3 | Cn1c(=O)c2c(nc(S(C)(=O)=O)n2C)n(CC#Cc2cccc(O)c2)c1=O |  |  |  |  |  |  |  | 2 | Active | inhibition [20]: Active; half-life [21]: 20 min; inhibition (HT-29 [22]): Active

The next lines start with results.

Row | Activity [1] | residual activity [3] [%] | inhibition [4] | residual activity [5] [%] | inhibition [7] | residual activity [8] [%] | fold change (FC) [11] | SMILES | EC50 (HT-29 [6]) [nM] | inhibition (HT-29 [10]) | also measured
4 | Active | 110 | Active | 110 | Active | 101 | 150 | COc1cccn(Cc2cc(C#CCn3c(Cl)c(NC(=O)CCc4ccc(C)cc4)c(=O)n(C)c3=O)ccc2O)c1=O | 31 | Active | residual activity [2]: 117%; inhibition [9]: Active
5 | Active | 99.8 | Active | 100 | Active | 82.6 | 150 | Cc1ccc(CCC(=O)Nc2c(Cl)n(CC#Cc3ccc(O)c(Cn4ccccc4=O)c3)c(=O)n(C)c2=O)cc1 | 82 | Active | Activity [12]: Active; EC50 (HT-29 [13]): > 10000 nM; EC50 (HT-29 [14]): 180 nM; EC50 (HT-29 [15]): 584 nM; EC50 (HT-29 [16]): 188 nM
